From paper PMC5271370, “A High-Content Assay Enables the Automated Screening and Identification of Small Molecules with Specific ALDH1A1-Inhibitory Activity” (PLoS ONE, 2017)
Where two headings read alike, the source gives them in different places.

Tested on: MIA PaCa-2 cells
Test: 1,536-well high-content imaging ALDEFLUOR assay, MIA PaCa-2
Format: cell-based, human
Conditions: for Activity in ALDEFLUOR assay, MIA PaCa-2: semi-automated, active = high quality concentration response curve and >50% efficacy, up to 45.8 μM
Protocol: To miniaturize the assay into a 1536-well format amenable to qHTS, we chose MIA PaCa-2 and HT-29 because of their high levels of ALDH1A1(Fig 1A). Utilizing the 8-step protocol described by Ming et al. as a starting point, we developed a “semi-automated” protocol described in S1 Table. Briefly, we plated 1,000 cells in a volume of 5 μL/well into black-optical quality clear bottom 1,536-well plates, and allowed cells to attach overnight. Culture media was subsequently removed by inverting and centrifuging plates using a plate adaptor as previously described and replaced with 5 μL of a solution of either 500 or 100 nM BAAA substrate in ALDEFLUOR buffer. To identify cells based on nuclear staining, we also included 0.5 nM Hoechst 33342 in the above buffer. […] After incubating the plate for 30 minutes at 37°C, 5% CO2, 85% RH, the remaining substrate was removed by centrifugation as above and replaced with 3 μL of ALDEFLUOR buffer. Fluorescence was subsequently imaged using the IN Cell Analyzer 2200 high-content widefield fluorescence based imager and the resulting images were quantified using the IN Cell Investigator v1.6.2 analysis software (see Experimental Procedures for analysis details).
The ALDEFLUOR kit was purchased from […] Technologies (Vancouver, Canada; #01700). Cells (5 μL) were dispensed into black, optical quality (cyclic olefin copolymer) clear bottom, medium binding TC treated 1,536-well plates (Aurora Microplates, Whitefish MT) using a Multidrop Combi dispenser (ThermoFisher) and incubated overnight (37°C, 5% CO2, 85% RH). Media was subsequently removed by centrifuging plates upside down using a plate adaptor to collect media. A solution of BAAA substrate ([…] Technologies) and Hoechst 33342 (ThermoFisher, final concentrations of 500 nM and 0.5 nM, respectively) in ALDEFLUOR buffer ([…] Technologies #01700) was dispensed onto cells using a Multidrop Combi followed by immediate transfer (23 nL) of compound or control solutions using a Wako Pin-tool (final percentage of DMSO in the cell plates was 0.5%). Unless otherwise noted, all compounds were assayed as 16-point dilutions spanning a final concentration range of 1.4 nM to […]. […] Cells were incubated for 30 minutes or the indicated amount of time at 37°C, 5% CO2, 85% RH to allow the conversion of BAAA into BAA. Supernatant was subsequently removed by centrifugation as described above, then ALDEFLUOR buffer (3 μl) was dispensed by Multidrop Combi before imaging on an IN Cell 2200 (GE Healthcare).
The above assay was modified for an online robotic screening system. After cell plating and overnight incubation, 4 μL of media were removed using a 64-tip metal aspirator head on a Wako aspirator station, leaving 1 μL remaining in the well, followed by a 4 μL dispense of BAAA and Hoechst 33342 in ALDEFLUOR buffer, for a final concentration of 500 nM and 0.5 nM, respectively. Immediately following the dispense, 23 nL of compound or control solutions were transferred using a Wako Pin-tool. Cells were incubated for 30 minutes at 37°C, 5% CO2, 85% RH, followed by a 4 μL media removal using the Wako aspirator, and a subsequent 3 μL addition of ALDEFLUOR buffer. Plates were then immediately read on the IN Cell 2200 as described below.
For images captured on the IN Cell 2200 widefield automated microscope, a 10x 0.45 NA Plan Apo objective lens was used to capture the entire well of the 1,536-well plate using standard DAPI (390/18x, 432/48m) and FITC (475/28x, 525/48m) filter sets at 50 msec and 100 msec exposures, respectively. Images were subsequently analyzed using IN Cell Investigator v1.6.2 analysis software’s canned Multi-Target Analysis algorithm (GE Healthcare). Hoechst stained nuclei were identified using top hat segmentation with a minimum area of 75 μm^2 and sensitivity of 93. […]

[1] = Homo sapiens, MIA PaCa-2, 0.5 h, validation set, semi-automated protocol, 16-point dilution, 1,000 cells/well, 500 nM BAAA, 30 min, read-out: Aldefluor IC50 MIA PaCa-2
[2] = validation set, semi-automated protocol, 16-point dilution, 1,000 cells/well, 500 nM BAAA, 30 min, read-out: Aldefluor IC50 MIA PaCa-2

Row | Molecule | IC50 [2] [µM] | Activity in ALDEFLUOR assay, MIA PaCa-2 | further results
1 | CC(C)=CCCC(C)=CC=O (mixture of isomers) [Citral] | 27.8 | – | IC50 [1]: ~27 µM
2 | COc1ccc(C(=O)CCN(C)C)cc1F [Aldi-2] | 18 | – | –
3 | CC(C)(C)c1ccc(S(=O)(=O)/C=C/C#N)cc1 [Bay-11-7085] | 20 | – | –
4 | Cc1nc2ccccc2n1S(=O)(=O)c1ccc(F)cc1 [CB7] | – | tested negative | –
5 | CCOc1ccc(NCC(=O)Nc2ccc(Cl)cc2C)cc1 [CID 725345] | 9.46 | – | –
6 | COc1cccc2cc(C(=O)CC3(O)C(=O)N(Cc4ccccc4)c4ccccc43)c(=O)oc12 (stereo not shown) [CID 2929292] | – | tested negative | –
7 | CCN(CC)c1ccc(C=O)cc1 [DEAB, 4-N,N-diethylaminobenzaldehyde] | 3.44 | – | –
8 | O=c1c(-c2ccc(O)cc2)coc2cc(O[C@@H]3O[C@H](CO)[C@@H](O)[C@H](O)[C@H]3O)ccc12 [Daidzin] | – | tested negative | –
9 | CCN(CC)C(=S)SSC(=S)N(CC)CC [Disulfiram] | – | – | IC50 [1]: 11 µM
10 | Cc1cc2c(C(C)C)c(O)c(O)c(C=O)c2c(O)c1-c1c(C)cc2c(C(C)C)c(O)c(O)c(C=O)c2c1O [Gossypol] | – | inactive | –
11 | Nc1ccccc1C(=O)CC(N)C(=O)O (stereo not shown) [Kynurenine] | – | tested negative | –
12 | C[S+](=O)([O-])c1ccc(Cn2c3c(c4cc(F)cc(F)c42)CCCC3CC(=O)O)cc1 [L-670596] | – | – | IC50 (Homo sapiens, MIA PaCa-2, retest of screen hits, 11-point dose response 0.77 nM to 45.8 μM, read-out: ALDEFLUOR IC50 MIA PaCa2): ~10 µM; IC50 (retest of screen hits, 11-point dose response 0.77 nM to 45.8 μM, read-out: ALDEFLUOR IC50 MIA PaCa2): 10.8 µM
13 | C#CCN(C)Cc1ccccc1 [Pargyline] | – | inactive | IC50 (Homo sapiens, MIA PaCa-2, fully automated protocol-2 with two washes, read-out: IC50 of BAA signal reduction, automated protocol): ~5 µM
14 | CC(C)N(C(=O)CCl)c1ccccc1 [Propachlor] | – | – | IC50 (Homo sapiens, MIA PaCa-2, read-out: ALDEFLUOR IC50 MIA PaCa2): 0.3 µM
15 | O=C1Nc2ccccc2C1=O [indoline-2,3-dione] | – | – | IC50 [1]: 12 µM
16 | CVT-10216 | – | tested negative | –
